# Test results published in patent US20130029942A1, “COMPOUNDS AND THERAPEUTICAL USES THEREOF” (Myrexis, Inc., priority 2003, published 2013).
# System: P388 murine leukemia cell line
# Assay: P388 cytotoxicity (ATP-Lite, 72 hours)
# Assay type: cell-based
# Conditions: Mus musculus, P388, 72 hours
# Experimental: A P388 murine leukemia cell line was obtained from NCI, Frederick, Md. P388 cells were cultured in RPMI-1640 supplemented with 10% fetal bovine serum, 2 mM Glutamax, 1 mM sodium pyruvate, 0.1 mM non-essential amino acids and 10 mM HEPES. Cells were grown at 37° C. in a humidified 5% CO2 atmosphere. Exponentially growing P388 cells were plated at 5,000 cells/well in a 96-well flat-bottomed microtiter plate (Corning, Costar #3595). […] Cellular viability was determined 72 hours later by measuring intracellular ATP with ATP-Lite assay system. The effect of compounds on cell viability was calculated by comparing the ATP levels of cells exposed to test compound with those of cells exposed to DMSO. […] Data was analyzed by Prism software (GraphPad; San Diego, Calif.) by fitting it to a sigmoidal dose response curve.
row,Compound,IC50 [nM]
1,"COc1ccc(N(C)c2nc(NCCO)nc3c2CCCC3)cc1 [Example 194, 2-{4-[(4-Methoxy-phenyl)-methyl-amino]-5,6,7,8-tetrahydro-quinazolin-2-ylamino}-ethanol]",20
2,"COc1ccc(N(C)c2nncc3ccc(F)cc23)cc1 [Example 195, (7-Fluoro-phthalazin-1-yl)-(4-methoxy-phenyl)-methyl-amine]",1500
3,"COc1ccc(N(C)c2nncc3cc(F)ccc23)cc1 [Example 196, (6-Fluoro-phthalazin-1-yl)-(4-methoxy-phenyl)-methyl-amine]",330
4,"CONc1nc2c(c(N(C)c3ccc(OC)cc3)n1)CCC2 [Example 197, N-{4-[(4-Methoxy-phenyl)-methyl-amino]-6,7-dihydro-5H-cyclopentapyrimidin-2-yl}-O-methyl-hydroxylamine]",8
5,"COc1ccc(N(C)c2nc(OC(C)C)nc3cccc(F)c23)cc1 [Example 198, (5-Fluoro-2-isopropoxy-quinazolin-4-yl)-(4-methoxy-phenyl)-methyl-amine]",3
6,"COc1ccc(N(C)c2nc(C(F)(F)F)nc3ccccc23)cc1 [Example 199, (4-Methoxy-phenyl)-methyl-(2-trifluoromethyl-quinazolin-4-yl)-amine]",3
7,"CNc1nc2c(c(N(C)c3ccc(OC)cc3)n1)CCC2 [Example 200, N^4-(4-Methoxy-phenyl)-N^2,N^4-dimethyl-6,7-dihydro-5H-cyclopentapyrimidine-2,4-diamine]",7
8,"CNc1nc2c(c(N(C)c3ccc(OC)cc3)n1)CCCCC2 [Example 201, N4-(4-Methoxy-phenyl)-N2,N4-dimethyl-6,7,8,9-tetrahydro-5H-cycloheptapyrimidine-2,4-diamine]",76
9,"CCOC(=O)CNc1nc2c(c(N(C)c3ccc(OC)cc3)n1)CCC2 [Example 202, {4-[(4-Methoxy-phenyl)-methyl-amino]-6,7-dihydro-5H-cyclopentapyrimidin-2-ylamino}-acetic acid ethyl ester]",300
10,"COc1ccc(N(C)c2nc(CNC(C)=O)nc3ccccc23)cc1 [Example 203, N-{4-[(4-Methoxy-phenyl)-methyl-amino]-quinazolin-2-ylmethyl}-acetamide]",19
11,"Cc1nc(N(C)c2ccc(N(C)C(=O)OC(C)(C)C)cc2)c2ccccc2n1 [Example 204, Methyl-{4-[methyl-(2-methyl-quinazolin-4-yl)-amino]-phenyl}-carbamic acid tert-butyl ester]",460
12,"COc1ccc(N(C)c2nc(CN)nc3ccc(F)cc23)cc1 [Example 205, (2-Aminomethyl-6-fluoro-quinazolin-4-yl)-(4-methoxy-phenyl)-methyl-amine]",19
13,"COc1ccc(N(C)c2nc(CC#N)nc3ccccc23)cc1 [Example 206, {4-[(4-Methoxy-phenyl)-methyl-amino]-quinazolin-2-yl}-acetonitrile]",2
14,"CCOc1ccc(N(C)c2nc(C)nc3ccc([N+](=O)[O-])cc23)cc1 [Example 207, (4-Ethoxy-phenyl)-methyl-(2-methyl-6-nitro-quinazolin-4-yl)-amine]",17
15,"COc1ccc(N(C)c2nc(CCl)nc3ccc(Br)cc23)cc1 [Example 208, (6-Bromo-2-chloromethyl-quinazolin-4-yl)-(4-methoxy-phenyl)-methyl-amine]",27
16,"Cc1nc(N(C)c2ccc(OC(F)F)cc2)c2cc([N+](=O)[O-])ccc2n1 [Example 209, (4-Difluoromethoxy-phenyl)-methyl-(2-methyl-6-nitro-quinazolin-4-yl)-amine]",490
17,"COc1ccc(N(C)c2nc(C)nc3ccc([N+](=O)[O-])cc23)cc1F [Example 210, (3-Fluoro-4-methoxy-phenyl)-methyl-(2-methyl-6-nitro-quinazolin-4-yl)-amine]",57

row,Compound,IC50 [nM]
1,"CCOc1ccc(N(C)c2nc(CN)nc3ccccc23)cc1 [Example 211, (2-Aminomethyl-quinazolin-4-yl)-(4-ethoxy-phenyl)-methyl-amine]",15
2,"COc1ccc(N(C)c2nc(CCN)nc3ccccc23)cc1 [Example 212, [2-(2-Amino-ethyl)-quinazolin-4-yl]-(4-methoxy-phenyl)-methyl-amine]",250
3,"COc1ccc(N(C)c2nc(CN)nc3ccc(N)cc23)cc1 [Example 213, 2-Aminomethyl-N4-(4-methoxy-phenyl)-N4-methyl-quinazoline-4,6-diamine]",170
4,"CCOc1ccc(N(C)c2nc(C)nc3ccc(N)cc23)cc1 [Example 214, N^4-(4-Ethoxy-phenyl)-2,N^4-dimethyl-quinazoline-4,6-diamine]",9
5,"COc1ccc(N(C)c2nc(C)nc3ccc(N)cc23)cc1F [Example 215, N^4-(3-Fluoro-4-methoxy-phenyl)-2,N^4-dimethyl-quinazoline-4,6-diamine]",3
6,"Cc1nc(N(C)c2ccc(OC(F)F)cc2)c2cc(N)ccc2n1 [Example 216, N^4-(4-Difluoromethoxy-phenyl)-2,N^4-dimethyl-quinazoline-4,6-diamine]",20
7,"CC(C)Oc1ccc(N(C)c2nc(CN)nc3ccccc23)cc1 [Example 217, (2-Aminomethyl-quinazolin-4-yl)-(4-isopropoxy-phenyl)-methyl-amine]",18
8,"COc1ccc(N(C)c2nc(CN)nc3ccccc23)c(F)c1 [Example 218, (2-Aminomethyl-quinazolin-4-yl)-(2-fluoro-4-methoxy-phenyl)-methyl-amine]",12
9,"COc1ccc(N(C)c2nc(CN)nc3ccc(Br)cc23)cc1 [Example 219, (2-Aminomethyl-6-bromo-quinazolin-4-yl)-(4-methoxy-phenyl)-methyl-amine]",250
10,"CC(C)Oc1ccc(N(C)c2nc(CN)nc3ccc(N)cc23)cc1 [Example 220, 2-Aminomethyl-N^4-(4-isopropoxy-phenyl)-N^4-methyl-quinazoline-4,6-diamine]",870
11,"COc1ccc(N(C)c2nc(C)nc3ccc([N+](=O)[O-])cc23)c(F)c1 [Example 221, (2-Fluoro-4-methoxy-phenyl)-methyl-(2-methyl-6-nitro-quinazolin-4-yl)-amine]",58
12,"COc1ccc(N(C)c2nc(C)nc3ccc(N)cc23)c(F)c1 [Example 222, N^4-(2-Fluoro-4-methoxy-phenyl)-2,N^4-dimethyl-quinazoline-4,6-diamine]",6
13,"COc1ccc(N(C)c2nc(C)nc3ccc(N)cc23)cc1OC [Example 223, N^4-(3,4-Dimethoxy-phenyl)-2,N^4-dimethyl-quinazoline-4,6-diamine]",64
14,"Cc1nc(N(C)c2ccc(OC(C)C)cc2)c2cc([N+](=O)[O-])ccc2n1 [Example 224, (4-Isopropoxy-phenyl)-methyl-(2-methyl-6-nitro-quinazolin-4-yl)-amine]",170
15,"CNc1ccc(N(C)c2nc(C)nc3ccc(N)cc23)cc1 [Example 225, 2,N^4-Dimethyl-N^4-(4-methylamino-phenyl)-quinazoline-4,6-diamine]",37
16,"Cc1nc(N(C)c2ccc(OC(C)C)cc2)c2cc(N)ccc2n1 [Example 226, N^4-(4-Isopropoxy-phenyl)-2,N^4-dimethyl-quinazoline-4,6-diamine]",20
17,"COc1ccc(N(C)c2nc(N(C)CCCN)nc3ccccc23)cc1 [Example 227, N^2-(3-Amino-propyl)-N^4-(4-methoxy-phenyl)-N^2,N^4-dimethyl-quinazoline-2,4-diamine]",27
